We go through 39 molecules from patent publication US20250042890A1, “METHIONINE ADENOSYLTRANSFERASE 2a (MAT2A) INHIBITORS AND USES THEREOF” (Insilico Medicine IP Limited, priority 2021, published 2025).

SMILES strings stand for the structures. A value given as a limit tells only on which side of the number the result lay.

In the experiment the target is MAT2A (Homo sapiens (Human), UniProt P31153). The experiment in a line: MAT2A Biochemical Assay. Particulars: Biomol Green readout O.D.620; 1 uM start, 3-fold dilution, 10 doses; read-out: MAT2A enzymatic IC50. How it is done: Example A: MAT2A Biochemical Assay
MAT2A, sequence (P31153 whole entry, species assumed): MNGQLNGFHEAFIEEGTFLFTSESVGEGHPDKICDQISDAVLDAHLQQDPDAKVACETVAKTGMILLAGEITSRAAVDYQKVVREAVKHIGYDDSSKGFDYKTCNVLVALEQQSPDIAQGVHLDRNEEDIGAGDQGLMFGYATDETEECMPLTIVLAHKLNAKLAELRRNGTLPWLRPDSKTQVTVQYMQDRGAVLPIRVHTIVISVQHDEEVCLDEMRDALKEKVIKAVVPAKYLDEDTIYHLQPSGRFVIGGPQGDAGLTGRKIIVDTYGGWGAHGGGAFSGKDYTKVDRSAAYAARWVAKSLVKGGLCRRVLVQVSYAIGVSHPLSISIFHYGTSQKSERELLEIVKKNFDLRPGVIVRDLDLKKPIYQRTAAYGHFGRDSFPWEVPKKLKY
Compounds described herein were tested as follows:
• (1). Prepared 1×Assay buffer. • (2). Preparation of compound concentration gradient: the compounds test condition were 1 uM start, 3-fold dilution, 10 doses, singlet or duplicate. 100× concentration compounds were prepared in 384-well plate. Then used Echo 550 to transfer 250 nl to a 384-reaction plate for later use. Added 250 nl of 100% DMSO to the negative and positive control wells. • (3). Prepared 1.67× final concentration enzyme solution with 1×Assay buffer. • (4). Added 15 μl of 1.67× Enzyme solution to the compound wells and positive control wells; added 15 μl of 1 Assay buffer to the negative control wells. • (5). Centrifuged at 1000 rpm for 30 seconds and incubate for 15 minutes. • (6). Prepared 2.5× final concentration Substrate mix solution with 1×Assay buffer. • (7). Added 10 μl of 2.5× final concentration Substrate mix solution to start the reaction. • (8). Centrifuged at 1000 rpm for 30 seconds and incubate for 150 minutes. • (9). Added 50 μl Biomol Green to stop the reaction, centrifuge at 1000 rpm for 30 seconds and incubate for 15 minutes. read O.D.620, process data.
• (1) Using GraphPad Prism 5. • (2) % Inh=(Max signal−Compound signal)/(Max signal−Min signal)*100. • (3) Max signal was obtained from the positive control wells. • (4) Min signal was obtained from the negative control wells.
For orientation: IC50 means the midpoint of a concentration-inhibition curve. As for `C=CCNc1nc(=O)n(-c2cccnc2C)c2cc(C(F)(F)F)cc(OC)c12` [Example 77], the IC50 is less than 50 nM.

Turning to `C=CCNc1nc(=O)n(-c2cccnc2C)c2cc(Cl)cc(OC)c12` [Example 74], the IC50 was less than 50 nM.

Consider `C#CC1(Nc2nc(=O)n(-c3cccnc3)c3nc(C(F)(F)F)ccc23)CC1` [Example 68, 4-((1-ethynylcyclopropyl)amino)-1-(pyridin-3-yl)-7-(trifluoromethyl)pyrido[2,3-d]pyrimidin-2 (1H)-one], for which the IC50 was less than 50 nM.

Take `C#CCNc1nc(=O)n(-c2cnccn2)c2cc(C(F)(F)F)cc(OC)c12` [Example 54, 5-methoxy-4-(prop-2-yn-1-ylamino)-1-(pyrazin-2-yl)-7-(trifluoromethyl)quinazolin-2 (1H)-one]: the IC50 was less than 50 nM.

On to `C#CC1(Nc2nc(=O)n(-c3cccnc3C)c3cc(Cl)cc(OC)c23)CCC1` [Example 28], for which the IC50 was less than 50 nM.

Take `C#CC1(Nc2nc(=O)n(-c3nccnc3C)c3cc(Cl)cc(OC)c23)CC1` [Example 25, 7-chloro-4-((1-ethynylcyclopropyl)amino)-5-methoxy-1-(3-methylpyrazin-2-yl)quinazolin-2 (1H)-one]: the IC50 was less than 50 nM.

As for `C#CC1(Nc2nc(=O)n(-c3cccnc3C)c3cc(Cl)cc(F)c23)CC1` [Example 31, 7-chloro-4-((1-ethynylcyclopropyl)amino)-5-fluoro-1-(2-methylpyridin-3-yl)quinazolin-2 (11H)-one], the IC50 was less than 50 nM.

With `C#CC1(Nc2nc(=O)n(-c3cnccn3)c3cc(C(F)(F)F)ccc23)CC1` [Example 69, 4-((1-ethynylcyclopropyl)amino)-1-(pyrazin-2-yl)-7-(trifluoromethyl)quinazolin-2 (1H)-one], the IC50 was less than 50 nM.

Turning to `C#CCNc1nc(=O)n(-c2cnccn2)c2cc(Cl)ccc12` [Example 17, 7-chloro-4-(prop-2-yn-1-ylamino)-1-(pyrazin-2-yl)quinazolin-2 (1H)-one], the IC50 was less than 50 nM.

As to `C#CCNc1nc(=O)n(-c2cccnc2)c2cc(Cl)cc(OC)c12` [Example 20, 7-chloro-5-methoxy-4-(prop-2-yn-1-ylamino)-1-(pyridin-3-yl)quinazolin-2 (1H)-one], the IC50 was less than 50 nM.

Take `C#CCNc1nc(=O)n(-c2ccccc2Cl)c2cc(Cl)ccc12` [Example 10, 7-chloro-1-(2-chlorophenyl)-4-(prop-2-yn-1-ylamino)quinazolin-2 (1H)-one]: the IC50 is less than 50 nM.

As to `C#CCNc1nc(=O)n(-c2cccnc2)c2nc(C(F)(F)F)ccc12` [Example 57, 4-(prop-2-yn-1-ylamino)-1-(pyridin-3-yl)-7-(trifluoromethyl)pyrido[2,3-d]pyrimidin-2 (1H)-one], the half-inhibitory concentration (IC50) is less than 50 nM.

For `C#CCNc1nc(=O)n(-c2cccnc2)c2cc(Cl)cc(F)c12` [Example 29, 7-chloro-5-fluoro-4-(prop-2-yn-1-ylamino)-1-(pyridin-3-yl)quinazolin-2 (1H)-one], the IC50 was less than 50 nM.

For `C#CC(C)Nc1nc(=O)n(-c2cccnc2C)c2cc(Cl)cc(OC)c12` (stereo not drawn) [Example 26], the IC50 is less than 50 nM.

Take `C#CCCCNc1nc(=O)n(-c2cccnc2)c2cc(Cl)ccc12` [Example 6, 7-chloro-4-(pent-4-yn-1-ylamino)-1-(pyridin-3-yl)quinazolin-2 (1H)-one]: the IC50 was less than 50 nM.

With `C#CCNc1nc(=O)n(-c2cccnc2C(C)C)c2cc(C(F)(F)F)ccc12` [Example 45, 1-(2-isopropylpyridin-3-yl)-4-(prop-2-yn-1-ylamino)-7-(trifluoromethyl)quinazolin-2 (1H)-one], the IC50 is less than 50 nM.

Regarding `C#CC1(Nc2nc(=O)n(-c3cccnc3)c3cc(C(F)(F)F)cnc23)CC1` [Example 56, 4-((1-ethynylcyclopropyl)amino)-1-(pyridin-3-yl)-7-(trifluoromethyl)pyrido[3,2-d]pyrimidin-2 (1H)-one], the IC50 was more than 1000 nM.

As for `O=c1nc(NCC#CCN2CCOCC2)c2ccc(C(F)(F)F)cc2n1-c1cccnc1` [Example 14, 4-((4-morpholinobut-2-yn-1-yl)amino)-1-(pyridin-3-yl)-7-(trifluoromethyl)quinazolin-2 (1H)-one], the IC50 is less than 50 nM.

For `C#CC1(Nc2nc(=O)n(-c3cccnc3)c3cc(C(F)(F)F)ccc23)CC1` [Example 67], the IC50 is less than 50 nM.

As to `C#CC1(Nc2nc(=O)n(-c3cnccn3)c3cc(Cl)cc(OC)c23)CC1` [Example 24, 7-chloro-4-((1-ethynylcyclopropyl)amino)-5-methoxy-1-(pyrazin-2-yl)quinazolin-2 (1H)-one], the IC50 was less than 50 nM.

Take `C#CC(C)Nc1nc(=O)n(-c2cccnc2)c2cc(C(F)(F)F)ccc12` (stereo not drawn) [Example 64]: the IC50 is less than 50 nM.

In the case of `C#CCNc1nc(=O)n(-c2cccnc2)c2cc(C(F)(F)F)cc(OC)c12` [Example 34, 5-methoxy-4-(prop-2-yn-1-ylamino)-1-(pyridin-3-yl)-7-(trifluoromethyl)quinazolin-2 (1H)-one], the IC50 was less than 50 nM.

Take `C#CCNc1nc(=O)n(-c2nccnc2C)c2cc(Cl)cc(OC)c12` [Example 23, 7-chloro-5-methoxy-1-(3-methylpyrazin-2-yl)-4-(prop-2-yn-1-ylamino)quinazolin-2 (1H)-one]: the IC50 is less than 50 nM.

`C=CCNc1nc(=O)n(-c2cccnc2)c2cc(Cl)ccc12` [Example 5, 4-(allylamino)-7-chloro-1-(pyridin-3-yl)quinazolin-2 (1H)-one]: the IC50 is less than 50 nM.

As to `C#CCNc1nc(=O)n(-c2cccnc2C)c2cc(Cl)ccc12` [Example 15, 7-chloro-1-(2-methylpyridin-3-yl)-4-(prop-2-yn-1-ylamino)quinazolin-2 (1H1)-one], the IC50 is less than 50 nM.

On to `C#CCNc1nc(=O)n(-c2cccnc2C)c2cc(C(F)(F)F)cc(OC(F)F)c12` [Example 40, 5-(difluoromethoxy)-1-(2-methylpyridin-3-yl)-4-(prop-2-yn-1-ylamino)-7-(trifluoromethyl)quinazolin-2 (1l)-one], for which the IC50 was less than 50 nM.

On to `C#CCNc1nc(=O)n(-c2cccnc2C)c2cc(Cl)cc(F)c12` [Example 30, 7-chloro-5-fluoro-1-(2-methylpyridin-3-yl)-4-(prop-2-yn-1-ylamino)quinazolin-2 (1H)-one], for which the IC50 was less than 50 nM.

Take `C#CCNc1nc(=O)n(-c2cccnn2)c2nc(C(F)(F)F)ccc12` [Example 63, 4-(prop-2-yn-1-ylamino)-1-(pyridazin-3-yl)-7-(trifluoromethyl)pyrido[2,3-d]pyrimidin-2 (1H)-one]: the IC50 was less than 50 nM.

In the case of `C#CCNc1nc(=O)n(-c2cccnc2)c2cc(Br)ccc12` [Example 18, 7-bromo-4-(prop-2-yn-1-ylamino)-1-(pyridin-3-yl)quinazolin-2 (1H)-one], the IC50 is less than 50 nM.

As to `C#CC(C)Nc1nc(=O)n(-c2cccnc2C)c2cc(C(F)(F)F)cc(OC)c12` (stereo not drawn) [Example 37], the IC50 was less than 50 nM.

As for `C#CCCNc1nc(=O)n(-c2ccccc2Cl)c2cc(Cl)ccc12` [Example 8, 4-(but-3-yn-1-ylamino)-7-chloro-1-(2-chlorophenyl)quinazolin-2 (1H)-one], the IC50 was less than 50 nM.

As to `C#CC(C)Nc1nc(=O)n(-c2cccnc2)c2cc(Cl)cc(OC)c12` (stereo not drawn) [Example 65], the IC50 was less than 50 nM.

As to `C#CCNc1nc(=O)n(-c2cnccn2)c2cc(Cl)cc(OC)c12` [Example 21, 7-chloro-5-methoxy-4-(prop-2-yn-1-ylamino)-1-(pyrazin-2-yl)quinazolin-2 (1H)-one], the IC50 is less than 50 nM.

On to `C#CC1(Nc2nc(=O)n(-c3cccnc3C)c3cc(Cl)cc(OC)c23)CC1` [Example 27, 7-chloro-4-((1-ethynylcyclopropyl)amino)-5-methoxy-1-(2-methylpyridin-3-yl)quinazolin-2 (11H)-one], for which the IC50 was less than 50 nM.

As to `C#CCNc1nc(=O)n(-c2cccnc2C)c2cc(Cl)cc(OC)c12` [Example 22, 7-chloro-5-methoxy-1-(2-methylpyridin-3-yl)-4-(prop-2-yn-1-ylamino)quinazolin-2 (1H)-one], the IC50 was less than 50 nM.

In the case of `C#CC1(Nc2nc(=O)n(-c3cccnc3C)c3cc(Cl)ccc23)CC1` [Example 16, 7-chloro-4-((1-ethynylcyclopropyl)amino)-1-(2-methylpyridin-3-yl)quinazolin-2 (1H)-one], the IC50 is less than 50 nM.

As for `C#CCNc1nc(=O)n(-c2c(C)ccnc2C)c2cc(C(F)(F)F)ccc12` [Example 52, 1-(2,4-dimethylpyridin-3-yl)-4-(prop-2-yn-1-ylamino)-7-(trifluoromethyl)quinazolin-2 (11H)-one], the IC50 is less than 50 nM.

Turning to `C#CC(C)Nc1nc(=O)n(-c2cccnc2)c2cc(C(F)(F)F)cc(OC)c12` (stereo not drawn) [Example 35, 4-(but-3-yn-2-ylamino)-5-methoxy-1-(pyridin-3-yl)-7-(trifluoromethyl)quinazolin-2 (1H)-one], the IC50 is less than 50 nM.

On to `C#CC1(Nc2nc(=O)n(-c3cccnn3)c3nc(C(F)(F)F)ccc23)CC1` [Example 70, 4-((1-ethynylcyclopropyl)amino)-1-(pyridazin-3-yl)-7-(trifluoromethyl)pyrido[2,3-d]pyrimidin-2 (1H)-one], for which the IC50 is less than 50 nM.
